The values below are quoted from earlier work in patent US20240327339A1, “COMPOSITIONS AND METHODS FOR TREATING AND PREVENTING VIRAL INFECTIONS” (priority 2021, published 2024).

This data set concerns RSV. The following applies: cited from earlier work.

On to `NC(=O)c1ncn([C@@H]2O[C@H](CO)[C@@H](O)[C@H]2O)n1` [Ribavirin], for which, under “inhaled”, the therapeutic results is “mixed-to-poor results”.
As to “palivizumab: a humanized monoclonal antibody targeting the F protein”, the reduction of hospitalizations entry (treated high-risk infants, monthly administration) is reported as “approximately 50%”.
